Test [1] concerns the target Aurora B (Homo sapiens (Human), UniProt Q96GD4). As to the kind of experiment: Activity of other kinases: Aurora B (HTRF). Format: biochemical. How it is done: Embodiment 5 Activity of Other Kinases
(1) Preparation of 1×kinase reaction buffer:
1 time the volume of 5×kinase reaction buffer and 4 times the volume of water; 5 mM MgCl2; 1 mM DTT.
(2) Screening of Compounds:
a) The compound was diluted with DMSO in a dilution plate.
b) The compound was diluted 40 times into the 1× kinase reaction buffer and oscillated on an oscillator for 20 minutes.
c) 2× was prepared using a 1× enzyme reaction buffer.
d) 2 μL of kinase was added to each well of the reaction plate.
e) 1 μL of the compound diluted in the buffer was added to each well, and the plate was sealed with a sealing film, centrifuged at 1000 rpm for 60 seconds and incubated at 25° C. for 10 minutes.
f) A mixture of 2.5×S2 &TK-substrate-biotin and ATP was prepared using the 1× enzyme reaction buffer, and 2 μL of the S2 &TK-substrate-biotin/ATP mixture was added to the reaction plate.
G) The plate was sealed with a sealing film, centrifuged at 1000 rpm for 60 seconds and incubated at 25° C. for 50&40&30&20 minutes.
h) 4× Sa-XL 665 was prepared using an HTRF detection buffer.
i) 5 μL of Sa-XL 665 and 5 μL of STK/TK-antibody-Cryptate were added to each well, centrifugation was conducted at 1000 rpm for 60 seconds, and incubation was conducted at 25° C. for 1 hour.
j) The fluorescence signals at 615 nm (Cryptate) and 665 nm (XL665) were read using the BGM microplate reader.
For orientation: TR-FRET usually uses a lanthanide donor and a delayed reading to cut background.

Test [2] relates to BaF3-EGFR^del19/C797S cells. In words: BaF3 cell proliferation inhibition experiment (CCK-8). It counts as cell-based. The conditions noted are these: Mus musculus, BaF3, 72 h, read-out: BaF3-EGFR^del19 /C797S (IC50 nM).
For test [3], the system named is BaF3-EGFR^L858R/C797S cells. The description is as above. The conditions noted are these: Ba/F3 EGFR-L858R, 72 h, read-out: BaF3-EGFR^L858R/C797S (IC50 nM). Format: cell-based.

Chain of Aurora B (Q96GD4 whole entry): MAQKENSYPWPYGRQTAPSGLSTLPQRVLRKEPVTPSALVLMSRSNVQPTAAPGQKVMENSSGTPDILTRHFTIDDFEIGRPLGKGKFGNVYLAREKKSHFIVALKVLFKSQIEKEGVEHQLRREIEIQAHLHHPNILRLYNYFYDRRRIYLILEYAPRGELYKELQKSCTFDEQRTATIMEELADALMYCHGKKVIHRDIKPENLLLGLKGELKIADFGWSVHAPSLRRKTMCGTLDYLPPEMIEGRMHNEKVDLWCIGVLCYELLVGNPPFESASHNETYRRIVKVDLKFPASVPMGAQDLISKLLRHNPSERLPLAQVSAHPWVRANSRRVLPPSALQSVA

`CCc1cc(Nc2ncc(Cl)c(Nc3ccc(C)c(C)c3P(C)(C)=O)n2)c(OC)cc1N1CCC(N2CCN(C)CC2)CC1` [Comparative Compound A, reference compound] returned an IC50 in test [1] of 2010 nM.
For `CCc1cc(Nc2ncc(Cl)c(Nc3ccc(C)c(C)c3P(C)(C)=O)n2)c(OC)cc1N1CC2(CCN(C)CC2)C1` [Compound 24, (6-((5-Chloro-2-((5-ethyl-2-methoxy-4-(7-methyl-2,7-diazaspiro[3.5]non-2-yl)phenyl)amino)pyrimidin-4-yl)amino)-2,3-dimethylphenyl)dimethylphosphine oxide], the IC50 in test [1] was determined as 410 nM; in test [2] it was 202 nM; in test [3], 158 nM.
For the compound `CCc1cc(Nc2ncc(Cl)c(Nc3ccc(C)c(C)c3P(C)(C)=O)n2)c(OC)cc1N1CCC(N2C[C@H]3CC[C@@H](C2)N3C)CC1` [Compound 51, (6-((5-chloro-2-((5-ethyl-2-methoxy-4-(4-((1R,5S)-8-methyl-3,8-diazabicyclo[3.2.1]octan-3-yl)piperidin-1-yl)phenyl)amino)pyrimidin-4-yl)amino)-2,3-dimethylphenyl)dimethylphosphine oxide], the IC50 in test [2] came out at 146 nM; in test [3], 116 nM.

The values are drawn from patent US20250101052A1, “COMPOUND FOR EGFR KINASE INHIBITOR, COMPOSITION, AND USE THEREOF” (INNOVATION INSTITUTE FOR ARTIFICIAL INTELLIGENCE IN …, priority 2021, published 2025).
